Test results taken from patent US10385005B2, “Compositions and methods for glucose transport inhibition” (OHIO UNIVERSITY, priority 2010, dated 2019).

Experiments:
[1] = test system: MCF12A normal breast cells; assay: MTT cell death assay, MCF12A; assay type: cell-based, human; details: concentration = IC50 for each compound
From the text: (§1) Comparative assays using WZB-27, WZB-115, as well as two known anticancer drugs, cisplatin and taxol, were completed. In Table 4, the percent cell death in cancer cell lines as well as normal cell lines is shown. […] Comparing the breast cancer cell line MCF7, WZB-27 and WZB-115 kill somewhat fewer cells relative to taxol but more than cisplatin. Both WZB-27 and WZB-115 kill fewer of the normal breast cell line MCF12A than taxol or cisplatin. WZB-27 kills fewer of the normal breast cell line MCF12A than taxol or cisplatin while WZB-115 kills no more normal cells than either cisplatin or taxol.
(§2) MTT assays are performed by the following well-established method. In a 96 well tissue culture plate 10,000 cells are plated in each well. The cells are incubated in presence or absence of the compounds for 18 h. 3-(4,5-Dimethylthiazol-2-yl)-2,5-diphenyltetrazolium bromide (MTT) is dissolved in PBS (10 mg/ml) and filter sterilized. Three hours before the end of the incubation 20 μL of MTT solution is added to each well containing cells in a 96-well plate. The plate is incubated in an incubator at 37° C. for 3 h. Media is aspirated gently and 200 μL of DMSO is added to each well to dissolve formazan crystals. The absorbance is measured at 550 nm for cell viability.

[2] = test system: NL20 normal lung cells; assay: MTT cell death assay, NL20; assay type: cell-based, human; details: concentration = IC50 for each compound
From the text: as §1, §2

[3] = test system: MCF7 breast cancer cells; assay: MTT cell death assay, MCF7; assay type: cell-based, human; details: concentration = IC50 for each compound
From the text: as §1, §2

[4] = test system: H1299 lung cancer cells; assay: MTT cell growth / viability assay, H1299; assay type: cell-based, human; details: for % cell death: concentration = IC50 for each compound
Protocol: (§3) Briefly, H1299 cancer cells were treated with or without the compounds (30 μM) in triplicates for 10 min before the glucose uptake assay. Cellular glucose uptake was measured by incubating cells in the glucose-free KRP buffer with […] [^3H]2-deoxyglucose (specific activity, 40 Ci/mmol) for 30 min in the absence or presence of compounds. After the cells were washed with ice-cold PBS and lysed by 0.2 N NaOH, the cell lysates were transferred to scintillation counting vials and the radioactivity in the cell lysates was quantified by liquid scintillation counting. Cell growth measurements were performed using an MTT assay in hexads in a 96-well tissue culture plate with 5,000 cells plated in each well. The cells were incubated in presence or absence of the compounds (30 μM) for 48 h. After incubation, cell viabilities were assayed using a 96-well SPECTRAMAX™ absorbance/fluorescence plate reader (Molecular Devices).
as §2

[5] = test system: MCF-7 cells; assay: Glucose uptake assay (3H 2-DG), MCF-7; assay type: cell-based, human; details: 30 μM
Protocol: (§4) Cells were treated with α-PGG for 20 minutes before ^3H-labeled 2-DG. Thirty minutes after the addition of 2-DG, cells were harvested, lysed, and counted for their respective glucose uptake. Samples: 1. Mock; 2. […] WZB-25 (30 μM); 5. WZB-26 (30 μM); and 6. WZB-27 (30 μM).
(§5) Compounds 1a and 2a were initially prepared as potential anti-diabetic analogs of α-PGG (FIG. 1). Given the tight SAR of this class of compounds, it was hypothesized that a more rigid scaffold (i.e., a benzene ring) might enhance the activity.

[6] = test system: H1299 cells; assay: Standard glucose uptake assay, H1299; assay type: cell-based, human; details: for Glucose transport inhibition (%) / glucose uptake inhibition compared with fasentin: H1299; for glucose uptake inhibition compared with fasentin: all compounds 30 μM, FIG. 22A
Protocol: as §3
Cancer cells are treated with or without the compounds for 10 min before the glucose uptake assay. Cellular glucose uptake will be measured by incubating cells in glucose-free RPMI 1640 with […] [^3H]2-deoxyglucose (specific activity, 40 Ci/mmol) for 30 min in the absence and presence of compounds. After the cells are washed with ice-cold PBS and lysed, the cell lysates will be transferred to scintillation counting vials and the radioactivity in the cell lysates is quantified by liquid scintillation counting.

[7] = test system: RKO cells; assay: Glucose uptake assay (3H 2-DG), RKO; assay type: cell-based, human; details: 30 μM
Protocol: as §4, §5

[8] = test system: HeLa cells; assay: Glucose uptake assay (3H 2-DG), HeLa; assay type: cell-based, human
Protocol: Cells were treated with α-PGG for 20 minutes before ^3H-labeled 2-DG. […] Samples: 1. Mock; 2. […] WZB-25 (30 μM); 5. WZB-26 (30 μM); and 6. WZB-27 (30 μM). Compounds 1a and 2a were initially prepared as potential anti-diabetic analogs of α-PGG (FIG. 1). Given the tight SAR of this class of compounds, it was hypothesized that a more rigid scaffold (i.e., a benzene ring) might enhance the activity. […] Error bars in FIG. 8 represent standard deviations of the measurements. Samples were done in triplicates and the experiment was repeated three times.

[9] = test system: insulin-like glucose uptake stimulatory activity; assay: Insulin-like activity of PGG analogs; assay type: cell-based
[10] = test system: basal glucose uptake; assay: Glucose uptake of possible hydrolyzed products (FIG. 2); assay type: cell-based
From the text: (§6) In summary, a library of multiphenolic ester compounds as novel inhibitors of basal glucose transport and anticancer agents with a potential new target, basal glucose transport, were synthesized.

[11] = test system: cancer cells; assay: Anticancer screens of hydrolysis products; assay type: cell-based
From the text: as §6

[12] = test system: basal glucose transport; details: known glucose transport inhibitors, positive controls; cited from earlier work
[13] = test system: RKO and RKO E6 cell lines; assay: Cell killing assay in RKO and RKO E6 cells; assay type: cell-based, human; details: high vs low p53
From the text: A. Cell viability assay in RKO colon cancer cells. RKO cells contain high levels of p53 while RKO E6 cells contain much lower levels of p53. […] RKO cells have higher level of p53 while RKO-E6 is p53 deficient. ***p<0.001, **p<0.01. C.

[14] = test system: PARP protein (Caspase 3 substrate) in H1299 lung cancer cells; assay: PARP cleavage assay, H1299; assay type: cell-based, human
From the text: A. Cell viability assay in RKO colon cancer cells with α-PGG, W25 (WZB-25), W27 (WZB-27), and C7 treatments. RKO cells contain high levels of p53 while RKO E6 cells contain much lower levels of p53. B. Apoptosis assay in H1299 lung cancer cells using cleaved PARP protein (89 kDa) as an indicator for Caspase 3 since PARP is a substrate of activated Caspase 3.
To determine if anti-cancer compounds W25 and W27 kill cancer cells using a p53 dependent or a p53-independent pathway, a cell killing assay was performed in RKO and RKO E6 cell lines. The difference between the two cell lines is that RKO cells contain much higher levels of p53 than RKO E6 cells.
Cells were harvested from plates, re-suspended with 3× sample buffer, and boiled for 5 min. Approximately […] of protein extract was loaded after protein concentration measurement by Pierce bicinchoninic acid (BCA) protein assay (Pierce Biotechnology, Inc. Rockford, Ill.). Samples were run on a 10% Bio-Tris NuPAGE gel (Invitrogen) and transferred to a polyvinylidene difluoride membrane (PVDF, Biorad). The membrane was incubated with antibodies specific to p53, or PARP, or β-actin. Specific protein bands were visualized after the development of film. Antibodies for p53 were purchased from Santa Cruz Biotechnology, Inc. (Santa Cruz, Calif., USA). […]

[15] = test system: three different cancer cell lines; details: all compounds 60 μM, FIG. 22B
Protocol: Known basal glucose compound fasentin and compound inhibitors generated in house were compared side by side in both glucose uptake assay and cell viability (MTT) assay. Glucose uptake or cell viability of mock treated samples was arbitrarily assigned a value of 100%. A. Glucose uptake assay in H1299 cancer cells. Concentration for all compounds was 30 μM. B. Cell viability assays in three different cancer cell lines. Concentration for all compounds was 60 μM.
Fasentin is a published inhibitor of basal glucose transport and known GLUT1 inhibitor.

[16] = test system: HeLa cells; assay: Apoptosis (ELISA) assay; assay type: cell-based, human; details: FIG. 5B
[17] = test system: HeLa cells; assay: Antibody-coupled flow cytometry study; assay type: cell-based, human; details: FIG. 5C
From the text: (§7) A. α-PGG treatment led to 70-80% reduction of cell viability as measured by a cell viability (MTT) assay. […] C. α-PGG treatment of HeLa cells led to a decrease in G1 phase cells but a significant increase (˜3-fold) in apoptotic cells as determined by an antibody-coupled flow cytometry study.

[18] = test system: RKO (colon), HeLa (cervical), and MCF-7 (breast) human cancer cells; assay: Cell viability (MTT) assay of α-PGG treated cancer cells; assay type: cell-based; details: FIG. 5A
From the text: as §7

## N.N.[Cl][Pt][Cl] [Cisplatin, cisplatin]
[1]
  % cell death: 69.6 ± 2.9%
[2]
  % cell death: 58.4 ± 7.0%
[3]
  % cell death: 27.0 ± 1.9%
[4]
  % cell death: 26.4 ± 3.8%

## COc1cccc(OC(=O)c2cc(O)c(O)c(O)c2)c1OC(=O)c1cc(O)c(O)c(O)c1 [Compound 1a]
[5]
  Glucose transport inhibitory activity (%): 33.0 ± 0.5%
[6]; Table 2, 30 μM, untreated cells 0% inhibition
  Glucose transport inhibition (%): 58.4±6.3%
[6]; Table 3, 30 μM in H1299 cells, listed as WZB-26
  % inhibition of basal glucose transport: 84.0 ± 1.9%
[7]
  Glucose transport inhibitory activity (%): 57.2 ± 4.4%
[8]; Hela, 30 μM
  Glucose transport inhibitory activity (%): 46.3 ± 3.3%
[9]
  insulin-like activity: without any insulin-like activity
[4]; Table 2, 30 μM, 48 h
  Cell growth inhibition (%): 36.0±6.1%

## Oc1cccc(F)c1O [Compound 6c]
[10]
  glucose uptake inhibition activity: none of these compounds had any glucose uptake inhibition activity
[11]
  activity in anticancer screens: none of these compounds showed any activity in anticancer screens

## Oc1cccc(O)c1O [Compound 8, pyrogallol]
[10]
  glucose uptake inhibition activity: none of these compounds had any glucose uptake inhibition activity
[11]
  activity in anticancer screens: none of these compounds showed any activity in anticancer screens

## CC(=O)CC(=O)Nc1ccc(Cl)c(C(F)(F)F)c1 [Fasentin, fasentin]
[12]
  IC50: ≥ 50 µM

## CC(=O)O[C@H]1C(=O)[C@@]2(C)[C@H]([C@H](OC(=O)c3ccccc3)[C@]3(O)C[C@H](OC(=O)[C@H](O)[C@@H](NC(=O)c4ccccc4)c4ccccc4)C(C)=C1C3(C)C)[C@]1(OC(C)=O)CO[C@@H]1C[C@@H]2O [Taxol, taxol]
[1]
  % cell death: 73.7 ± 5.6%
[2]
  % cell death: 53.8 ± 4.2%
[3]
  % cell death: 61.4 ± 7.1%
[4]
  % cell death: 45.6 ± 4.9%

## O=C(O[C@@H]1[C@@H](OC(=O)c2cc(O)c(O)c(O)c2)[C@@H]2OC[C@@H](O2)[C@H]1OC(=O)c1cc(O)c(O)c(O)c1)c1cc(O)c(O)c(O)c1 [WZB-25]
[13]
  cell killing / viability RKO vs RKO E6: killed about the same amounts of RKO cells and RKO E6 cells
[8]; HeLa, FIG. 8
  dose dependence of basal glucose transport inhibition: dose-dependent manner
[14]
  PARP cleavage: cleaved into a 89 kDa protein

## Oc1cccc(COc2cccc(OCc3cccc(O)c3)c2OCc2cccc(O)c2)c1 [WZB-131]
[15]
  cancer cell death compared with fasentin: more cancer cell death than fasentin
[6]
  glucose uptake inhibition compared with fasentin: stronger inhibition than fasentin
[6]; Table 12
  Glucose transport inhibition (%): 95.0 ± 1.6%
[4]; Table 12
  Cell growth inhibition (%): 12.9 ± 2.6%

## Oc1cccc(COc2ccc(Cl)cc2OCc2cccc(O)c2)c1 [WZB-133]
[15]
  cancer cell death compared with fasentin: more cancer cell death than fasentin
[6]
  glucose uptake inhibition compared with fasentin: stronger inhibition than fasentin
[6]; Table 12
  Glucose transport inhibition (%): 91.2 ± 0.8%
[4]; Table 12
  Cell growth inhibition (%): 14.3 ± 2.7%

## O=c1cc(-c2ccc(O)cc2)oc2cc(O)cc(O)c12 [apigenin]
[12]
  IC50: ≥ 60 µM

## O=C(OC[C@H]1O[C@@H](OC(=O)c2cc(O)c(O)c(O)c2)[C@H](OC(=O)c2cc(O)c(O)c(O)c2)[C@@H](OC(=O)c2cc(O)c(O)c(O)c2)[C@@H]1OC(=O)c1cc(O)c(O)c(O)c1)c1cc(O)c(O)c(O)c1 [α-PGG, penta-galloyl-glucose]
[16]
  increase in apoptosis: more than 2 fold
[17]
  increase in apoptotic cells: ~3 fold
[18]
  reduction of cell viability: 70-80%
[8]; HeLa, 20 min preincubation
  concentration at which glucose transport inhibition starts: 5 µM
